The values that follow come from paper PMC10867124, “Plant root associated chitinases: structures and functions” (Frontiers in Plant Science, 2024).

One data set deals with T1, ZmChi19A (Zea mays, UniProt B6TR38, E147A/E169A).
T1 construct: cDNA from maize root; signal peptide removed; N-terminal 10xHis-SUMO tag kept, TEV site; CBD, catalytic domain and flexible C-terminal domain; pET28b, E. coli; FPLC-purified
T1 sequence (B6TR38 26-334 E147A/E169A limits assumed): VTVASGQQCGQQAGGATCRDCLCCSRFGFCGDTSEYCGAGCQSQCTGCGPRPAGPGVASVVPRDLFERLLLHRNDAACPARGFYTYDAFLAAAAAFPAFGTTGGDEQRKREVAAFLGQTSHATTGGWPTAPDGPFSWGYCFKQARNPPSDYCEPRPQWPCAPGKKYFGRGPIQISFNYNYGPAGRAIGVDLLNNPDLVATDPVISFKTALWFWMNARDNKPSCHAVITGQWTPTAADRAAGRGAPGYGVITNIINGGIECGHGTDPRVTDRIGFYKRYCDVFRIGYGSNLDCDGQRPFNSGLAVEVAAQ
As to the kind of experiment: 4-MU release fluorescence, relative activity. Conditions: SUMO fusion; catalytic residues mutated. It counts as biochemical.

Substrate in data set [1]: CC(=O)N[C@H]1[C@H](Oc2ccc3c(C)cc(=O)oc3c2)O[C@H](CO)[C@@H](O[C@@H]2O[C@H](CO)[C@@H](O[C@@H]3O[C@H](CO)[C@@H](O)[C@H](O)[C@H]3NC(C)=O)[C@H](O)[C@H]2NC(C)=O)[C@@H]1O
As to the kind of experiment: 4-MU release fluorescence, Langmuir fit. It counts as biochemical, Chitinophaga oryzae. The settings on record: 50 °C, pH 8.

On to `CC(=O)N[C@H]1[C@H](Oc2ccc3c(C)cc(=O)oc3c2)O[C@H](CO)[C@@H](O[C@@H]2O[C@H](CO)[C@@H](O[C@@H]3O[C@H](CO)[C@@H](O)[C@H](O)[C@H]3NC(C)=O)[C@H](O)[C@H]2NC(C)=O)[C@@H]1O` [4-MU-GlcNAc3], for which the “4-MU release fluorescence, relative activity” value at ZmChi19A is “ZmChi19A(E147A,E169A) showed almost complete loss of activity”.

B1: CspCh18A (Chitinophaga oryzae) (protein)
chain: CKKDEARPDNPQTKSEPRVETVTKAGGKSVCYVEVNSNSLLNTGKYTLTTGGQQLFDIAIIFAANINYNTTTGKAVLYNNPNVTNVLVNKNTQIVPLQNKGMKVLLSILGNHQGAGFCNFTSRAAAKAFAQQLADTANYYGLDGIDFDDEYADYGNNGLPQPNDSSFVMLLDELRKLMPTKIISFYYYGPAASRLSWGGKKAGDFINYSWNAMYGTYSVPNVAGLTKANLGPAAVDIQATSQSTANWLATQTKNNGYGIYLWYNLTSTDKHVYFSGVSNILYGSSVTYTP
notes: signal peptide removed; TEV site, His tag; pET28a, E. coli; TIM-barrel catalytic domain, no CBD; FPLC-purified
The term Km denotes the substrate concentration at which the rate is half of its maximum. Regarding B1, in data set [1], the Km worked out at 37 µM.
